Consider 17 molecules from patent publication US11987588B2, “Modulators of the beta-3 adrenergic receptor useful for the treatment or prevention of heart failure and disorders related thereto” (Arena Pharmaceuticals, Inc., priority 2017, dated 2024).

Beta-3 Adrenergic Receptor, sequence (P13945 whole entry, species assumed): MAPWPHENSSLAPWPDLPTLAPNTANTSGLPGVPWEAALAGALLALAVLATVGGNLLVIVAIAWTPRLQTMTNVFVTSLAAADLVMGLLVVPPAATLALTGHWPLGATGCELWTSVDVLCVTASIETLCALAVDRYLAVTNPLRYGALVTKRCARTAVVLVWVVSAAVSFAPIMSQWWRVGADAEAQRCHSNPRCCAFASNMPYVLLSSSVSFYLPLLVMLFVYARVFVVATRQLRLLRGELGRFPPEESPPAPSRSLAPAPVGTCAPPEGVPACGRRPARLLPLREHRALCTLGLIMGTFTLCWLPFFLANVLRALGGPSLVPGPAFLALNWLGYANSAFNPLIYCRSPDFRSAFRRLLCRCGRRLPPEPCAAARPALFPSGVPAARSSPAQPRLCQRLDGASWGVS

This experiment addresses Beta-3 Adrenergic Receptor (Homo sapiens (Human), UniProt P13945). In words: Homogeneous Time-Resolved Fluorescence (HTRF) cAMP antagonist assay, IC50 determination. The format is cell-based. Conditions: CHO-K1 cells stably expressing recombinant receptor, isoproterenol at EC90. An outline of the steps: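 Antagonist mode: isoproterenol at its predetermined EC90 added after compound to recombinant CHO-K1 cells in IBMX-containing PBS, 1 h, room temperature. Compounds tested as 5-fold, 10-point dilutions, top final typically 10 or 100 μM. HTRF signal converted to cAMP via standard curve, giving IC50.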
A general note: Time-resolved FRET reads energy transfer from a long-lived donor to a nearby acceptor.
`CCn1cnc2cc(S(=O)(=O)N3CCC4(CC3)C[C@@H](NC[C@H](O)COc3cccc(S(=O)(=O)NC)c3)CO4)cnc21` [Compound 511, 3-((S)-3-((R)-8-(3-ethyl-3H-imidazo[4,5-b]pyridin-6-ylsulfonyl)-1-oxa-8-azaspiro[4.5]decan-3-ylamino)-2-hydroxypropoxy)-N-methylbenzenesulfonamide]: the IC50 stood at 20.4 nM.

Take `CNS(=O)(=O)c1cccc(OC[C@@H](O)CN[C@H]2COC3(CCN(S(=O)(=O)c4cnc5[nH]cc(C)c5c4)CC3)C2)c1` [Compound 512, 3-((S)-2-hydroxy-3-((R)-8-(3-methyl-1H-pyrrolo[2,3-b]pyridin-5-ylsulfonyl)-1-oxa-8-azaspiro[4.5]decan-3-ylamino)propoxy)-N-methylbenzenesulfonamide]: the IC50 turned out to be 6.62 nM.

Turning to `CNS(=O)(=O)c1cccc(OC[C@@H](O)CN[C@H]2COC3(CCN(S(=O)(=O)c4cnc5c(c4)c(Cl)cn5C)CC3)C2)c1` [Compound 513, 3-((S)-3-((R)-8-(3-chloro-1-methyl-1H-pyrrolo[2,3-b]pyridin-5-ylsulfonyl)-1-oxa-8-azaspiro[4.5]decan-3-ylamino)-2-hydroxypropoxy)-N-methylbenzenesulfonamide], the IC50 amounted to 6.36 nM.

As for `CNS(=O)(=O)c1cccc(OC[C@@H](O)CN[C@H]2COC3(CCN(S(=O)(=O)c4cnc5c(c4)CC(=O)N5)CC3)C2)c1` [Compound 514, 3-((S)-2-hydroxy-3-((R)-8-(2-oxo-2,3-dihydro-1H-pyrrolo[2,3-b]pyridin-5-ylsulfonyl)-1-oxa-8-azaspiro[4.5]decan-3-ylamino)propoxy)-N-methylbenzenesulfonamide], the IC50 amounted to 176 nM.

For `CCc1nc2cc(S(=O)(=O)N3CCC4(CC3)C[C@@H](NC[C@H](O)COc3cccc(S(=O)(=O)NC)c3)CO4)cnc2[nH]1` [Compound 515, 3-((S)-3-((R)-8-(2-ethyl-3H-imidazo[4,5-b]pyridin-6-ylsulfonyl)-1-oxa-8-azaspiro[4.5]decan-3-ylamino)-2-hydroxypropoxy)-N-methylbenzenesulfonamide], the half-inhibitory concentration (IC50) amounted to 74.9 nM.

For the molecule `CNS(=O)(=O)c1cccc(OC[C@@H](O)CN[C@H]2COC3(CCN(S(=O)(=O)c4cc5nc[nH]c5nc4C)CC3)C2)c1` [Compound 516, 3-((S)-2-hydroxy-3-((R)-8-(5-methyl-3H-imidazo[4,5-b]pyridin-6-ylsulfonyl)-1-oxa-8-azaspiro[4.5]decan-3-ylamino)propoxy)-N-methylbenzenesulfonamide], the half-inhibitory concentration (IC50) was 166 nM.

For the molecule `CNS(=O)(=O)c1cccc(OC[C@@H](O)CN[C@H]2COC3(CCN(S(=O)(=O)c4cnc5[nH]c(C)c(Cl)c5c4)CC3)C2)c1` [Compound 517, 3-((S)-3-((R)-8-(3-chloro-2-methyl-1H-pyrrolo[2,3-b]pyridin-5-ylsulfonyl)-1-oxa-8-azaspiro[4.5]decan-3-ylamino)-2-hydroxypropoxy)-N-methylbenzenesulfonamide], the IC50 worked out at 7.74 nM.

Turning to `CNS(=O)(=O)c1cccc(OC[C@@H](O)CN[C@H]2COC3(CCN(S(=O)(=O)c4cnc5c(c4)[nH]c(=O)n5C)CC3)C2)c1` [Compound 518, 3-((S)-2-hydroxy-3-((R)-8-(3-methyl-2-oxo-2,3-dihydro-1H-imidazo[4,5-b]pyridin-6-ylsulfonyl)-1-oxa-8-azaspiro[4.5]decan-3-ylamino)propoxy)-N-methylbenzenesulfonamide], the IC50 was 133 nM.

Turning to `CNS(=O)(=O)c1cccc(OC[C@@H](O)CN[C@H]2COC3(CCN(S(=O)(=O)c4cnc5[nH]cnc5c4C)CC3)C2)c1` [Compound 519, 3-((S)-2-hydroxy-3-((R)-8-(7-methyl-3H-imidazo[4,5-b]pyridin-6-ylsulfonyl)-1-oxa-8-azaspiro[4.5]decan-3-ylamino)propoxy)-N-methylbenzenesulfonamide], the half-inhibitory concentration (IC50) was determined as 68.4 nM.

Consider `CCNS(=O)(=O)c1cccc(OC[C@@H](O)CN[C@H]2COC3(CCN(S(=O)(=O)c4cnc5cc[nH]c5c4)CC3)C2)c1` [Compound 520, 3-((S)-3-((R)-8-(1H-pyrrolo[3,2-b]pyridin-6-ylsulfonyl)-1-oxa-8-azaspiro[4.5]decan-3-ylamino)-2-hydroxypropoxy)-N-ethylbenzenesulfonamide], for which the IC50 was 14.6 nM.

Take `O=S(=O)(NCCO)c1cccc(OC[C@@H](O)CN[C@H]2COC3(CCN(S(=O)(=O)c4cnc5cc[nH]c5c4)CC3)C2)c1` [Compound 521, 3-((S)-3-((R)-8-(1H-pyrrolo[3,2-b]pyridin-6-ylsulfonyl)-1-oxa-8-azaspiro[4.5]decan-3-ylamino)-2-hydroxypropoxy)-N-(2-hydroxyethyl)benzenesulfonamide]: the 50% inhibitory concentration (IC50) came out at 98.3 nM.

Consider `CNS(=O)(=O)c1cccc(OC[C@@H](O)CN[C@H]2COC3(CCN(S(=O)(=O)c4cnc5[nH]c(=O)n(C)c5c4)CC3)C2)c1` [Compound 522, 3-((S)-2-hydroxy-3-((R)-8-(1-methyl-2-oxo-2,3-dihydro-1H-imidazo[4,5-b]pyridin-6-ylsulfonyl)-1-oxa-8-azaspiro[4.5]decan-3-ylamino)propoxy)-N-methylbenzenesulfonamide], for which the 50% inhibitory concentration (IC50) came out at 22.2 nM.

As to `CNS(=O)(=O)c1cccc(OC[C@@H](O)CN[C@H]2COC3(CCN(S(=O)(=O)c4cnc5ncn(C)c5c4)CC3)C2)c1` [Compound 523, 3-((S)-2-hydroxy-3-((R)-8-(1-methyl-1H-imidazo[4,5-b]pyridin-6-ylsulfonyl)-1-oxa-8-azaspiro[4.5]decan-3-ylamino)propoxy)-N-methylbenzenesulfonamide], the IC50 was found to be 273 nM.

On to `CCCn1cc(S(=O)(=O)N2CCC3(CC2)C[C@@H](NC[C@H](O)COc2cccc(S(=O)(=O)NC)c2)CO3)c(=O)c2ccccc21` [Compound 524, 3-((S)-2-hydroxy-3-((R)-8-(4-oxo-1-propyl-1,4-dihydroquinolin-3-ylsulfonyl)-1-oxa-8-azaspiro[4.5]decan-3-ylamino)propoxy)-N-methylbenzenesulfonamide], for which the concentration for half-maximal inhibition (IC50) was 87.2 nM.

With `CCn1cc(S(=O)(=O)N2CCC3(CC2)C[C@@H](NC[C@H](O)COc2cccc(S(=O)(=O)NC)c2)CO3)c(=O)c2cccc(F)c21` [Compound 525, 3-((S)-3-((R)-8-(1-ethyl-8-fluoro-4-oxo-1,4-dihydroquinolin-3-ylsulfonyl)-1-oxa-8-azaspiro[4.5]decan-3-ylamino)-2-hydroxypropoxy)-N-methylbenzenesulfonamide], the IC50 is 21.6 nM.

On to `CNS(=O)(=O)c1cccc(OC[C@@H](O)CN[C@H]2COC3(CCN(S(=O)(=O)c4cnc5ccn(C)c5c4)CC3)C2)c1` [Compound 526, 3-((S)-2-hydroxy-3-((R)-8-(1-methyl-1H-pyrrolo[3,2-b]pyridin-6-ylsulfonyl)-1-oxa-8-azaspiro[4.5]decan-3-ylamino)propoxy)-N-methylbenzenesulfonamide], for which the half-inhibitory concentration (IC50) is 6.97 nM.

As to `CNS(=O)(=O)c1cccc(OC[C@@H](O)CN[C@H]2COC3(CCN(S(=O)(=O)c4cnc5c(Cl)cn(C)c5c4)CC3)C2)c1` [Compound 527, 3-((S)-3-((R)-8-(3-chloro-1-methyl-1H-pyrrolo[3,2-b]pyridin-6-ylsulfonyl)-1-oxa-8-azaspiro[4.5]decan-3-ylamino)-2-hydroxypropoxy)-N-methylbenzenesulfonamide], the IC50 was found to be 9.03 nM.

The term IC50 denotes the midpoint of a concentration-inhibition curve.
